Test results: US20040224844A1, “Use of hydroxyaromatic compounds as safeners” (Bayer CropScience GmbH, priority 2003, published 2004)

Legend:
Assay type in all cases: in vivo
[1] = system: Glycine max (soybean), cv. 'Lambert'; assay: Pre-emergence application of herbicide after seed dressing with safener; conditions: for Safener action as % damage reduction in crop plants: GLXMA
Protocol: (§1) The number of crop plant seeds required for each application rate of safener was calculated. Sufficient seeds were weighed out into glass bottles having a screw-on lid. The volume of the glass bottles was approximately twice that of the seeds weighed out.
(§2) The safeners were formulated as 20 percent strength water-dispersible powders. These formulations were weighed out to give the required application rates (g of a.i./kg of seed). The samples were added to the seeds in the glass containers, and sufficient water to form a suitable seed dressing was then added. The glass bottles were closed and then mounted in an overhead shaker (which turns the bottles at moderate speed for a period of up to one hour) so that the seeds were uniformly covered with the seed dressing. The bottles were opened and the seeds were ready for use in pre-emergence or post-emergence experiments, as described below.
(§3) The seeds which had been treated with safeners and untreated seeds as controls were sown in sandy loam soil in round plastic pots of a diameter of 13 cm and covered with a layer of sandy loam of a thickness of about 1 cm. The herbicides in the form of liquid (for example emulsion concentrates) or dry (for example water-dispersible powders) formulations were diluted with deionized water to the required concentrations and applied to the surface of the soil with a spray bar using a water application rate of 300 liters per hectare. In the two experiments shown below (results see tables 2.2.1 and 2.2.2), the herbicide isoxaflutole was used as an aqueous suspension concentrate.
(§4) The pots were placed in a greenhouse under favorable growth conditions. Visual scoring of the herbicidal action was carried out four weeks after the herbicide application. Evaluation was carried out on a percentage basis by comparison with untreated control plants (0%=no noticeable effect compared with the untreated plant, 100%=treated plant dies).

[2] = system: Zea mays (corn), cv. 'Lorenzo'; assay: as above; conditions: for Safener action as % damage reduction in crop plants: ZEAMA
Protocol: as §1, §2, §3, §4

[3] = system: Zea mays (corn), cv. 'Lorenzo'; assay: Post-emergence application of herbicide and safener by the tank mix method: crop damage; conditions: for Safener action as % damage reduction in crop plants: ZEAMA
From the text: (§5) Seeds of various crop plants and weed species were sown in sandy loam soil in round plastic pots of a diameter of 13 cm and covered with a layer of sandy loam of a thickness of about 1 cm. The pots were placed in a greenhouse under favorable growth conditions for a period of about two to three weeks, allowing the plants to reach a growth stage of 2 to 4 leaves. The herbicides in the form of liquid (for example emulsion concentrates) or dry (for example water-dispersible powders) formulations were mixed with a standard additive (based on rapeseed oil methyl ester), diluted with deionized water to the required concentrations and applied to the green parts of the plants and the uncovered part of the soil surface with a spray bar using a water application rate of 300 liters per hectare. In the experiment shown below, safener and the herbicide foramsulfuron were in each case used as 20 percent strength water-dispersible powder (results see table 1.2.1).
as §4

[4] = system: Zea mays (corn), cv. 'Lorenzo'; assay: Pre-emergence application of herbicide and safener by the tank mix method: crop damage
Protocol: (§6) Seeds of various crop plants and weed species were sown in sandy loam soil in plastic pots of a diameter of 13 cm and covered with a layer of sandy loam of a thickness of about 1 cm. Herbicides and safeners in the form of liquid (for example emulsion concentrates) or dry (for example water-dispersible powders) formulations were diluted with deionized water to the required concentration and applied to the surface of the soil with a spray bar using a water application rate of 300 liters per hectare. In the experiment shown below, the safeners were used as 20 percent strength water-dispersible powders and the herbicide isoxaflutole was used as an aqueous suspension concentrate (see table 1.1.1).
as §4

Chenopodium album = assay: Pre-emergence application of herbicide and safener by the tank mix method: herbicidal action; conditions: four weeks
Protocol: as §6, §4

Setaria viridis [5] = assay: as above; conditions: four weeks
Protocol: as §6, §4

Setaria viridis [6] = assay: Post-emergence application of herbicide and safener by the tank mix method: herbicidal action; conditions: four weeks
From the text: as §5, §4

Amaranthus retroflexus = assay: as above; conditions: four weeks
From the text: as §5, §4

[7] = system: Zea mays (corn), cv. 'Lorenzo'; assay: Post-emergence application of herbicide after seed dressing with safener; conditions: for Safener action as % damage reduction in crop plants: ZEAMA
Protocol: as §1, §2
as §5, with “The seeds treated with safener” for “Seeds of various crop plants”, “untreated seeds” for “weed species”, “2.3.1).” for “1.2.1).”
as §4, with “base” for “basis”

[8] = seed dressing with safener 1 g of a.i./kg of seed, herbicide H1 (isoxaflutole) 100 g of a.i./ha pre-emergence
[9] = safener 250 g of a.i./ha + herbicide H2 (foramsulfuron) 40 g of a.i./ha, post-emergence tank mix
[10] = safener 250 g of a.i./ha + herbicide H1 (isoxaflutole) 100 g of a.i./ha, pre-emergence tank mix
[11] = seed dressing with safener 1 g of a.i./kg of seed, herbicide H2 (foramsulfuron) 40 g of a.i./ha post-emergence
[12] = seed dressing with safener 1 g of a.i./kg of seed, herbicide H1 (isoxaflutole) 100 g of a.i./ha pre-emergence, four weeks
[13] = herbicide H1 (isoxaflutole) 100 g of a.i./ha alone, no safener, pre-emergence
[14] = herbicide H2 (foramsulfuron) 40 g of a.i./ha alone, no safener, post-emergence

Row | Compound | Safener action as % damage reduction in crop plants [1, 8] | % damage in GLXMA ([1]; in vivo) | Safener action as % damage reduction in crop plants [2, 8] | % damage in ZEAMA ([2]; in vivo) | Safener action as % damage reduction in crop plants [3, 9] | Safener action as % damage reduction in ZEAMA [4, 10] | Herbicidal action in CHEAL (in %) (Chenopodium album; [10]) | Herbicidal action in SETVI (in %) (Setaria viridis [5]; [10]) | Herbicidal action as % damage in SETVI (Setaria viridis [6]; [9]) | Herbicidal action as % damage in AMARE (Amaranthus retroflexus; [9]) | Safener action as % damage reduction in crop plants [7, 11] | % damage in ZEAMA ([7]; in vivo) | other results
1 | O=C(O)c1cc(O)cc(O)c1 [Comp. 1050, 3,5-dihydroxybenzoic acid] | 64% | 28% | 75% | 5% | 69% | 88% | 97% | 96% | 97% | 90% | 86% | 5% | 
2 | COc1cc(C(=O)O)cc(OC)c1O [Comp. 1272, 3,5-dimethoxy-4-hydroxybenzoic acid] | 55% |  | 50% |  | 53% | 52% | 94% | 98% | 95% | 92% | 79% |  | % damage in GLXMA [1, 12]: 35%; % damage in ZEAMA [2, 12]: 10%; % damage in ZEAMA ([3]; safener 250 g of a.i./ha + herbicide H2 (foramsulfuron) 40 g of a.i./ha, post-emergence tank mix, visual scoring four weeks after application): 15%; % damage in ZEAMA ([4]; safener 250 g of a.i./ha + herbicide H1 (isoxaflutole) 100 g of a.i./ha, pre-emergence tank mix, visual scoring four weeks after application): 12%; % damage in ZEAMA ([7]; seed dressing with safener 1 g of a.i./kg of seed, herbicide H2 (foramsulfuron) 40 g of a.i./ha post-emergence, four weeks): 7.5%
3 | CS(=O)(=O)c1cc(C(F)(F)F)ccc1C(=O)c1cnoc1C1CC1 [Herbicide H1, isoxaflutole, reference compound] |  | 78% |  | 20% |  |  |  |  |  |  |  |  | % damage in ZEAMA ([4]; in vivo): 25%; Herbicidal action in CHEAL (in %) (Chenopodium album; [13]): 94%; Herbicidal action in SETVI (in %) (Setaria viridis [5]; [13]): 96%
4 | COc1cc(OC)nc(NC(=O)NS(=O)(=O)c2cc(NC=O)ccc2C(=O)N(C)C)n1 [Herbicide H2, foramsulfuron, reference compound] |  |  |  |  |  |  |  |  |  |  |  | 35% | % damage in ZEAMA ([3]; in vivo): 32%; Herbicidal action as % damage in SETVI (Setaria viridis [6]; [14]): 93%; Herbicidal action as % damage in AMARE (Amaranthus retroflexus; [14]): 90%
